Measurements from patent US20220106596A1, “A METHOD OF GENE EDITING” (University of Washington, priority 2019, published 2022).

Legend:
[1] = test system: HT-1080 cells with LHSN63D530 provirus and HPRT exon3D4; assay: neo gene editing in HT-1080 cells infected with AAV2-HSN5′ (G418 selection), effect of emetine; format: cell-based, human
Excerpt: (§1) The murine leukemia virus (MLV) vector LHSN63Δ53O contains a nonfunctional neomycin phosphotransferase target gene (neo) with a 53-bp deletion at nucleotide 63 of its open reading frame, a hygromycin phosphotransferase gene (hph) for selection, and a plasmid replication origin for recovering the target sites.
(§2) In some embodiments, a cell is gene edited using the HT-1080 (human fibrosarcoma cells) gene editing assay. This method uses HT-1080 neo/HPRT editing cells transduced with LHSN63Δ53O. HT-1080 cells contain an integrated copy of an MLV LHSN63Δ530 targeting locus and a 4 by deletion in the single copy, X-linked HPRT gene at exon 3. The cells are transduced with AAV2-HSN5′ and cultured in G418 to identify neo gene-edited cells. The AAV2-HSN5′ gene targeting vector contains sequences homologous to MLV-LHSN63Δ53O with a truncated neo gene that lacks the 53 by deletion. Alternatively, HT-1080 cells are transduced with AAV2-HPe3 targeting vector and selected with HAT medium to identify HPRT gene-edited cells (See Russell et al., 2008, Human Gene Therapy, 19: 907-914 and Deyle et al., 2014, Nature Structural & Molecular Biol., 21: 969-975). Targeted clones are expanded as a polyclonal population. Untargeted control cells are generated by transducing HT-1080 cells with the MLV vector LHSNO, which is identical to LHSN63Δ53O except that it contains a functional neo gene.
(§3) To determine the effect of emetine on gene editing, experiments were performed using human HT-1080 cells with LHSN63Δ530 provirus and HPRT exon 3Δ4, infected with AAV2-HSN5′ or AAV2-HPe3. Replicate samples of cells were treated under the following conditions: • AAV (MOI 2×10^4) alone for 24 hours; • 0.125 μM emetine for 8 hours followed by the addition of AAV (MOI 2×10^4) and incubation for 24 hours; • 0.25 μM emetine for 24 hours followed by the addition of AAV (MOI 2×10^4) and incubation for 24 hours; • 0.25 μM emetine for 24 hours followed by the addition of AAV (MOI 2×10^4) and incubation with AAV for 24 hours; • 0.25 μM emetine in the presence of AAV (MOI 2×10^4) for 24 hours; • AAV (MOI-2×10^4) for 8 hours followed by the addition of 0.25 μM emetine and incubation with emetine for 23 hours; • AAV (MOI-2×10^4) for 24 hours followed by the addition of 0.25 μM emetine and incubation with emetine for 8 hours; • AAV (MOI-2×10^4) for 8 hours followed by the addition of emetine (0.25 μM) and incubation with emetine for 18 hours, removal of emetine, followed by addition of a second dosage of emetine (0.25 μM) and incubation for 16 hours; or • AAV (MOI 2×10^4) for 24 hours followed by the addition of emetine (0.25 μM) and incubation for 7 hours, removal of emetine, followed by addition of a second dosage of emetine (0.25 μM) for 2 hours.
(§4) For each experiment, 2×10^4 cells were seeded and cultured in the presence of 4×10^8 AAV. All experiments were performed in DMEM+10% FBS+pen/strep. Emetine dihydrochloride hydrate: E2375 (Sigma) was prepared in water and sterilized by filtration on 0.22 uM filter.

[2] = test system: HT-1080 cells with LHSN63D530 provirus and HPRT exon3D4; assay: HPRT gene editing in HT-1080 cells infected with AAV2-HPe3 (HAT selection), effect of emetine; format: cell-based, human
Excerpt: as §1, §2, §3, §4

[3] = test system: mouse Hepa1-6 hepatoma cells; assay: Gene editing (albumin knock-in, GFP expression by flow cytometry) with AAVDJ-mAlb-GFP; format: cell-based; settings: 1000 nM emetine
Method: To determine the effect of emetine on gene editing, experiments were performed using mouse Hepa1-6 hepatoma cells using the vector AAVDJ-mAlb-GFP. Gene editing in the presence of this vector results in an albumin knock-in with resulting expression of green fluorescent protein (GFP).
On day 0, 100,000 cells were plated in 1.5 ml DMEM with 10% FBS, 100 units/mL penicillin and 100 μg/mL streptomycin. On day 1, cells were transduced with AAVDJ-mAlb-GFP (multiplicity of (MOI)—50,000) by removing the media and adding to the cells 1.5 ml of fresh media (DMEM with 10% FBS, 100 units/mL penicillin, 100 μg/mL streptomycin) containing the desired MOI of the AAVDJ-mAlb-GFP virus. For 100,000 cells, to achieve an MOI of […] were added.
On day 2, fresh medium (1.5 ml of DMEM with 10% FBS, 100 units/mL penicillin, 100 μg/mL streptomycin) with or without emetine, was added. Replicate samples were treated with no emetine, or with 30 nM emetine, 100 nM emetine or 1000 nM emetine. A control sample lacked AAV. On day 3, the media was removed and 1.5 ml of DMEM with 10% FBS, 100 units/mL penicillin, 100 μg/mL streptomycin was added to the cells. Expression of GFP was measured on days 6, 7 and 10.
Flow cytometry was used to measure GFP expression. On the day of the assay (days 6, 7 and 10) cells were trypsinized and the resulting cell pellet was resuspended in 500 μL of FACS buffer (DPBS (Dulbecco's Phosphate Buffered Saline) without Ca2+, Mg2+, and supplemented with 2% FBS, 1 mM EDTA). The resulting cell suspension was analyzed for GFP positive cells on the BD FACScanto II. For samples treated with no AAV, 0 nM emetine, 30 nM emetine, and 100 nM emetine, 100,000 cells were analyzed, and for samples treated with 1000 nM emetine, 70,000 cells were analyzed.

mouse liver = assay: In vivo gene editing of mouse liver with AAVDj-mALB-luciferase (bioluminescence imaging); parameters: species or system C57BL/6 mice; settings: emetine 5 mg/kg intraperitoneal, days 1-5, FIG. 3
Method: To determine the effect of emetine on gene editing in vivo, experiments were performed using C57BL/6 mice.
[…]. On day 0, 5 mice (Group I), were given AAVDj-mALB-luciferase vector at an amount of 3×10^11 vg/mouse by retro orbital injection. Gene editing of the AAVDj-mALB-luciferase vector results in an albumin locus knock-in and luciferase expression. 5 mice (Group 2) were injected with AAVDj-mALB-luciferase vector, at an amount of 3×10^11 vg/mouse by retro orbital injection, and given emetine in DPBS, at a concentration of 5 mg/kg, by intraperitoneal injection. 5 mice (Group 3) were injected only with emetine at a concentration of 5 mg/kg, by intraperitoneal injection.
Emetine was administered to Groups 2 and 3 on days 1-5. On days 8, […] and 22, in vivo imaging in the presence of 15 mg/kg D-luciferin, administered by intraperitoneal injection, was performed to determine the occurrence of editing. Following D-luciferin administration, the mice were anesthetized with isoflurane and placed in an IVIS imager and the peak bioluminescence was recorded (Gornalusse et al., 2017, Nature Biotech, 35(8): 765-772). […] At days 15 and 22, a 1.6 and 1.4 fold increase, respectively, were observed.

[4] = 0.125 μM emetine for 8 hrs before adding AAV
[5] = 0.25 μM emetine for 24 hrs before adding AAV
[6] = 0.25 μM emetine for 24 hrs before adding AAV + 24 hrs with AAV
[7] = 0.25 μM emetine for 24 hrs with AAV
[8] = AAV for 8 hrs, then added 0.25 μM emetine for 23 hrs
[9] = AAV for 8 hrs, then added emetine for 18 hrs, then removed emetine for 8 hrs, then added emetine for 16 hrs
[10] = AAV for 24 hrs then with 0.25 μM emetine for 8 hrs
[11] = AAV for 24 hrs, then emetine for 7 hrs, then removed emetine for 16 hrs, then added emetine for 2 hrs

Structure (SMILES): CC[C@H]1CN2CCc3cc(OC)c(OC)cc3[C@@H]2C[C@@H]1C[C@H]1NCCc2cc(OC)c(OC)cc21 [emetine]
- Fold increase in editing frequency due to emetine, % G4158R emetine/% G418R no emetine [1, 4]: 2.40 Fold
- Fold increase in editing frequency due to emetine, % G4158R emetine/% G418R no emetine [1, 5]: 3.82 Fold
- Fold increase in editing frequency due to emetine, % G4158R emetine/% G418R no emetine [1, 6]: 6.64 Fold
- Fold increase in editing frequency due to emetine, % G4158R emetine/% G418R no emetine [1, 7]: 3.70 Fold
- Fold increase in editing frequency due to emetine, % G4158R emetine/% G418R no emetine [1, 8]: 1.96 Fold
- Fold increase in editing frequency due to emetine, % G4158R emetine/% G418R no emetine [1, 9]: 8.47 Fold
- Fold increase in editing frequency due to emetine, % G4158R emetine/% G418R no emetine [1, 10]: 1.94 Fold
- Fold increase in editing frequency due to emetine, % G4158R emetine/% G418R no emetine [1, 11]: 2.63 Fold
- Fold increase in editing frequency due to emetine, % HATR/% HAR no emetine [2, 4]: 8.39 Fold
- Fold increase in editing frequency due to emetine, % HATR/% HAR no emetine [2, 5]: 7.25 Fold
- Fold increase in editing frequency due to emetine, % HATR/% HAR no emetine [2, 6]: 11.19 Fold
- Fold increase in editing frequency due to emetine, % HATR/% HAR no emetine [2, 7]: 8.39 Fold
- Fold increase in editing frequency due to emetine, % HATR/% HAR no emetine [2, 8]: 1.99 Fold
- Fold increase in editing frequency due to emetine, % HATR/% HAR no emetine [2, 9]: 2.88 Fold
- Fold increase in editing frequency due to emetine, % HATR/% HAR no emetine [2, 10]: 1.63 Fold
- Fold increase in editing frequency due to emetine, % HATR/% HAR no emetine [2, 11]: 1.56 Fold
- increase in expression of GFP ([3]; day 6, FIG. 2): 22 fold
- increase in expression of GFP ([3]; day 7, FIG. 2): 12 fold
- increase in expression of GFP ([3]; day 10, FIG. 2): 3 fold
- increase in level of gene editing in vivo in mouse liver (peak bioluminescence) as compared to mice treated with AAV alone (mouse liver; day 8): 2.3 fold
- increase in level of gene editing in vivo in mouse liver (peak bioluminescence) as compared to mice treated with AAV alone (mouse liver; day 15): 1.6 fold
- increase in level of gene editing in vivo in mouse liver (peak bioluminescence) as compared to mice treated with AAV alone (mouse liver; day 22): 1.4 fold
